The NIST ThermoML archive (doi:10.1021/acs.jced.5b00122)
± gives the expanded uncertainty stated by the source.

Settings: 298.15 K; 101.33 kPa; Liquid; Vibrating tube method

SMILES	mass density [kg/m3]
COCCO [2-methoxyethan-1-ol]	960.892 ± 1.9
CCCOCCO [2-propoxyethanol]	907.878 ± 1.8
CCCO [propan-1-ol]	801.08 ± 1.6

Second part, the compound after the results:

mass density [kg/m3]	SMILES
787.577 ± 1.6	CCO [ethanol]
787.52 ± 1.6	CO [methanol]
781.214 ± 1.6	CC(C)O [propan-2-ol]
